The values that follow come from US9326986B2, “Quinazolinone, quinolone and related analogs as sirtuin modulators” (GLAXOSMITHKLINE LLC, priority 2008, dated 2016).

Molecules are shown by their SMILES.

The test deals with T1, SIRT1 (Homo sapiens, UniProt Q96EB6).
T1 sequence (Q96EB6 1-747): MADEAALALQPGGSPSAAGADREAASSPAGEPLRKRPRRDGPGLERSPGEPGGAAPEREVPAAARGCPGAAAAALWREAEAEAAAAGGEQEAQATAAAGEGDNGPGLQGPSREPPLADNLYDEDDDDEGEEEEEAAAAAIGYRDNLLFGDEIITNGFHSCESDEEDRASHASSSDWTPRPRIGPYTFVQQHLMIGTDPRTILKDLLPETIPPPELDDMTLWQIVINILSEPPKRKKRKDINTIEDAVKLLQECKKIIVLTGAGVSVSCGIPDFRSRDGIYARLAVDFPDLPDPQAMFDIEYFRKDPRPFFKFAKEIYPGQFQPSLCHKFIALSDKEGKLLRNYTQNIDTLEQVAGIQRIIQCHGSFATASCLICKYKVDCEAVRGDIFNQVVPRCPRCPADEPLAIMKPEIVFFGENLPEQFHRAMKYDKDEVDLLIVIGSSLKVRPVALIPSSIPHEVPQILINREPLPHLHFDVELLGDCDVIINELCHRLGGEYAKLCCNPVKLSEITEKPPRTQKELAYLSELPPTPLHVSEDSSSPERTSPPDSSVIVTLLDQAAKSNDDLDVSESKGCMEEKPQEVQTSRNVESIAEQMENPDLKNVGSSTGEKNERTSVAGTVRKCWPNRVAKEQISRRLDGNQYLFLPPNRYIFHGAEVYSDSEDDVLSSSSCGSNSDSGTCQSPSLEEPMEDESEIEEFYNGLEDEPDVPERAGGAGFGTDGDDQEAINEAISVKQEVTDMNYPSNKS
The experiment in a line: Mass spectrometry based assay to identify modulators of SIRT1 activity (deacetylation of p53-based acetylated peptide). Type of test: biochemical. The settings on record: 10 nM SIRT1, 0.5 μM peptide substrate, 120 μM βNAD+, 25 minutes at 25° C.; for EC1.5 μM: SIRT1 activation. The text has this:
A mass spectrometry based assay was used to identify modulators of SIRT1 activity. The mass spectrometry based assay utilizes a peptide having 20 amino acid residues as follows: Ac-EE-K(biotin)-GQSTSSHSK(Ac)NleSTEG-K(5TMR)-EE-NH2 (SEQ ID NO: 1) wherein K(Ac) is an acetylated lysine residue and Nle is a norleucine. The peptide is labeled with the fluorophore 5TMR (excitation 540 nm/emission 580 nm) at the C-terminus. The sequence of the peptide substrate is based on p53 with several modifications. In addition, the methionine residue naturally present in the sequence was replaced with the norleucine because the methionine may be susceptible to oxidation during synthesis and purification.
The mass spectrometry assay is conducted as follows: 0.5 μM peptide substrate and 120 μM βNAD^+ is incubated with 10 nM SIRT1 for 25 minutes at 25° C. in a reaction buffer (50 mM Tris-acetate pH 8, 137 mM NaCl, 2.7 mM KCl, 1 mM MgCl2, 5 mM DTT, 0.05% BSA). Test compounds may be added to the reaction as described above. […] After the 25 minute incubation with SIRT1, 10 μL of 10% formic acid is added to stop the reaction. Reactions are sealed and frozen for later mass spec analysis. Determination of the mass of the substrate peptide allows for precise determination of the degree of acetylation (i.e. starting material) as compared to deacetylated peptide (product).
A control for inhibition of sirtuin activity is conducted by adding 1 μL of 500 mM nicotinamide as a negative control at the start of the reaction (e.g., permits determination of maximum sirtuin inhibition). A control for activation of sirtuin activity is conducted using 10 nM of sirtuin protein, with 1 μL of DMSO in place of compound, to determine the amount of deacetylation of the substrate at a given timepoint within the linear range of the assay. This timepoint is the same as that used for test compounds and, within the linear range, the endpoint represents a change in velocity.
For the above assay, SIRT1 protein was expressed and purified as follows. […] The protein was expressed by induction with 1 mM IPTG as an N-terminal His-tag fusion protein at 18° C. overnight and harvested at 30,000×g. Cells were lysed with lysozyme in lysis buffer (50 mM Tris-HCl, 2 mM Tris[2-carboxyethyl]phosphine (TCEP), 10 μM ZnCl2, 200 mM NaCl) and further treated with sonication for 10 min for complete lysis. The protein was purified over a Ni-NTA column (Amersham) and fractions containing pure protein were pooled, concentrated and run over a sizing column (Sephadex S200 26/60 global). The peak containing soluble protein was collected and run on an Ion-exchange column (MonoQ). Gradient elution (200 mM-500 mM NaCl) yielded pure protein. This protein was concentrated and dialyzed against dialysis buffer (20 mM Tris-HCl, 2 mM TCEP) overnight. The protein was aliquoted and frozen at −80° C. until further use.
Sirtuin modulating compounds that activated SIRT1 were identified using the assay described above and are shown below in Tables 1 and 2. The EC1.5 values for the activating compounds are represented by A (EC1.5<1.0 μM), B (EC1.5 1-25 μM), C (EC1.5>25 μM). The percent maximum fold activation is represented by A (Fold activation>200%) or B (Fold Activation<200%).

As for `Cn1c(-c2cccc(OC(F)(F)F)c2)nc2c(C(=O)Nc3nccs3)cccc2c1=O` [Compound 200], the “% Fold Act. (percent maximum fold activation)” value is reported as “B (Fold Activation<200%)” and the “EC1.5 μM” value is recorded as “B (EC1.5 1-25 μM)”.

`Cn1c(-c2cccc(C(F)(F)F)c2)nc2c(NC(=O)c3cscn3)cccc2c1=O` [Compound 201]: the “% Fold Act. (percent maximum fold activation)” value is given as “B (Fold Activation<200%)” and the “EC1.5 μM” value is given as “A (EC1.5<1.0 μM)”.

`Cn1c(-c2cccc(C(F)(F)F)c2)nc2c(NC(=O)c3cnccn3)cccc2c1=O` [Compound 202]: the “% Fold Act. (percent maximum fold activation)” value is reported as “A (Fold activation>200%)” and the “EC1.5 μM” value is on record as “A (EC1.5<1.0 μM)”.

Turning to `Cn1c(-c2cccc(OC(F)(F)F)c2)nc2c(NC(=O)c3cscn3)cccc2c1=O` [Compound 203], the “% Fold Act. (percent maximum fold activation)” value is listed as “B (Fold Activation<200%)” and the “EC1.5 μM” value is “C (EC1.5>25 μM)”.

As to `Cn1c(-c2cccc(OC(F)(F)F)c2)nc2c(NC(=O)c3cnccn3)cccc2c1=O` [Compound 204], the “% Fold Act. (percent maximum fold activation)” value was “A (Fold activation>200%)” and the “EC1.5 μM” value is on record as “A (EC1.5<1.0 μM)”.

`Cn1c(-c2cccc(C(F)(F)F)c2)nc2c(C(=O)Nc3nccs3)cccc2c1=O` [Compound 205]: the “% Fold Act. (percent maximum fold activation)” value is recorded as “B (Fold Activation<200%)” and the “EC1.5 μM” value is given as “B (EC1.5 1-25 μM)”.

Take `Cn1c(-c2cccc(C(F)(F)F)c2)nc2c(C(=O)Nc3ccccn3)cccc2c1=O` [Compound 206]: the “% Fold Act. (percent maximum fold activation)” value was “A (Fold activation>200%)” and the “EC1.5 μM” value is “A (EC1.5<1.0 μM)”.

For `Cn1c(-c2cccc(OC(F)(F)F)c2)nc2c(C(=O)Nc3ccccn3)cccc2c1=O` [Compound 207], the “% Fold Act. (percent maximum fold activation)” value was “A (Fold activation>200%)” and the “EC1.5 μM” value is reported as “A (EC1.5<1.0 μM)”.

`Cn1c(-c2ccc(C(F)(F)F)cc2)nc2c(C(=O)Nc3ccccn3)cccc2c1=O` [Compound 208]: the “% Fold Act. (percent maximum fold activation)” value is given as “B (Fold Activation<200%)” and the “EC1.5 μM” value is reported as “C (EC1.5>25 μM)”.

Take `Cn1c(-c2cccc(N3CCOCC3)c2)nc2c(C(=O)Nc3ccccn3)cccc2c1=O` [Compound 209]: the “% Fold Act. (percent maximum fold activation)” value is given as “A (Fold activation>200%)” and the “EC1.5 μM” value is given as “B (EC1.5 1-25 μM)”.

In the case of `Cn1c(-c2ccccc2)nc2c(C(=O)Nc3ccccn3)cccc2c1=O` [Compound 210], the “% Fold Act. (percent maximum fold activation)” value was “B (Fold Activation<200%)” and the “EC1.5 μM” value is reported as “B (EC1.5 1-25 μM)”.

Turning to `Cn1c(-c2ccc(OC(F)(F)F)cc2)nc2c(C(=O)Nc3ccccn3)cccc2c1=O` [Compound 211], the “% Fold Act. (percent maximum fold activation)” value is “B (Fold Activation<200%)” and the “EC1.5 μM” value is “C (EC1.5>25 μM)”.

As for `Cn1c(-c2ccccc2C(F)(F)F)nc2c(C(=O)Nc3ccccn3)cccc2c1=O` [Compound 212, 3-methyl-4-oxo-N-(pyridin-2-yl)-2-(2-(trifluoromethyl)phenyl)-3,4-dihydroquinazoline-8-carboxamide], the “% Fold Act. (percent maximum fold activation)” value is “A (Fold activation>200%)” and the “EC1.5 μM” value is “B (EC1.5 1-25 μM)”.

Turning to `Cn1c(-c2ccccc2OC(F)(F)F)nc2c(C(=O)Nc3ccccn3)cccc2c1=O` [Compound 213], the “% Fold Act. (percent maximum fold activation)” value is listed as “A (Fold activation>200%)” and the “EC1.5 μM” value is listed as “B (EC1.5 1-25 μM)”.

Consider `Cn1c(C2CCCC2)nc2c(C(=O)Nc3ccccn3)cccc2c1=O` [Compound 214], for which the “% Fold Act. (percent maximum fold activation)” value is reported as “B (Fold Activation<200%)” and the “EC1.5 μM” value is reported as “C (EC1.5>25 μM)”.

In the case of `Cn1c(-c2ccc(S(C)(=O)=O)cc2)nc2c(C(=O)Nc3ccccn3)cccc2c1=O` [Compound 215], the “% Fold Act. (percent maximum fold activation)” value is “B (Fold Activation<200%)” and the “EC1.5 μM” value is reported as “C (EC1.5>25 μM)”.

As for `Cn1c(-c2ccccc2N2CCOCC2)nc2c(C(=O)Nc3ccccn3)cccc2c1=O` [Compound 216], the “% Fold Act. (percent maximum fold activation)” value is reported as “B (Fold Activation<200%)” and the “EC1.5 μM” value is “C (EC1.5>25 μM)”.
